Data on 1 compound can be found in article PMC7500870 (Biochemistry, 2020).

This test concerns the target Cj1427 (Campylobacter jejuni, UniProt Q0P8I7). As to the kind of experiment: stopped-flow NADH fluorescence, single turnover, global fit by simulation. In kind it is binding.

Cj1427, sequence (Q0P8I7 whole entry): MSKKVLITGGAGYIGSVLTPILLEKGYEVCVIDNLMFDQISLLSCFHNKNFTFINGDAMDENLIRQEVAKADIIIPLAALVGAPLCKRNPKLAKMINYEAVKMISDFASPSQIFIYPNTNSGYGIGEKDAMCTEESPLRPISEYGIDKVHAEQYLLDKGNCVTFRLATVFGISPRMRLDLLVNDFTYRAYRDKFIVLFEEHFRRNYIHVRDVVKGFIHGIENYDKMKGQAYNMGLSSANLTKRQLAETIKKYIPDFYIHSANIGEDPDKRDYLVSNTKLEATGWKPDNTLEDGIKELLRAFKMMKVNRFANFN

In general, Kd refers to the concentration at which binding is half-saturated. Low readings indicate tighter binding, high ones weaker binding. In turn, `O=C(O)CCC(=O)C(=O)O` [α-ketoglutarate] showed a Kd of 165 µM.
